Among the data in patent publication US8119663B2, “Heteroaryl-substituted piperidines” (Bayer Pharma Aktiengesellschaft, priority 2007, dated 2012) are IC50 values, retold here.

For this experiment, the target named is T1, human protease activated receptor 1 (PAR1) (Homo sapiens, UniProt P25116).
T1 construct: the cell stably expresses the endogenous human PAR1 receptor and the endogenous purinergic receptor P2Y2; endogenous in cells; host or cells: HEK293-derived recombinant cell line constitutively expressing mitochondrial aequorin
T1 sequence (P25116 22-425): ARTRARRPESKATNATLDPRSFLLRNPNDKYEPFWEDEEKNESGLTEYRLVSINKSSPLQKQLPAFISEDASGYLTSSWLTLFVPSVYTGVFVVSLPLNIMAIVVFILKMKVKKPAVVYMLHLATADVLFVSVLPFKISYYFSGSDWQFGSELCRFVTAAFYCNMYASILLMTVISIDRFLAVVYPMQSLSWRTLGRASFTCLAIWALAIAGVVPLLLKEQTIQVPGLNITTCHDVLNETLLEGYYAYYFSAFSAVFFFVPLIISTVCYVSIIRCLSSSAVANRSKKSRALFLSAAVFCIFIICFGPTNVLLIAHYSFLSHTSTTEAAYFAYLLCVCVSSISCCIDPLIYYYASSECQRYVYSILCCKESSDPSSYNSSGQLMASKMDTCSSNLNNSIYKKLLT
Put plainly: Cellular functional in vitro test (aequorin luminescence, PAR1 test cell). The format is cell-based. The conditions noted are these: recombinant HEK293-derived cell line expressing aequorin; PAR1 agonist added at its EC50 5 minutes after test substance. From the text: 1.a) Cellular Functional In vitro Test
A recombinant cell line is used to identify […] of the human protease activated receptor 1 (PAR1) and to quantify the activity of the substances described herein. The cell is originally derived from a human embryonal kidney cell (HEK293; ATCC: American Type Culture Collection, Manassas, Va. 20108, USA). The test cell line constitutively expresses a modified form of the calcium-sensitive photoprotein aequorin which, after reconstitution with the cofactor coelenterazine, emits light when the free calcium concentration in the inner mitochondrial compartment is increased (Rizzuto R, Simpson A W, Brini M, Pozzan T.; Nature 1992, 358, 325-327). Additionally, the cell stably expresses the endogenous human PAR1 receptor and the endogenous purinergic receptor P2Y2. The resulting PAR1 test cell responds to stimulation of the endogenous PAR1 or P2Y2 receptor with an intracellular release of calcium ions, which can be quantified through resulting aequorin luminescence with a suitable luminometer (Milligan G, Marshall F, Rees S, Trends in Pharmacological Sciences 1996, 17, 235-237).
For testing the substance specificity, its effect after activation of the endogenous PAR1 receptor is compared to the effect after activation of the endogenous purinergic P2Y2 receptor which utilizes the same intracellular signal path.
Test procedure: The cells are plated out two days (48 hours) before the test in culture medium (DMEM F12, supplemented with 10% FCS, 2 mM glutamine, 20 mM HEPES, 1.4 mM pyruvate, 0.1 mg/ml gentamycin, 0.15% Na bicarbonate; BioWhittaker Cat.# BE04-687Q; B-4800 Verviers, Belgium) in 384-well microtitre plates and kept in a cell incubator (96% atmospheric humidity, 5% V/V CO2, 37° C.). On the day of the test, the culture medium is replaced by a tyrode solution (in mM: 140NaCl, 5l KCl, 1MgCl2, 2CaCl2, 20 glucose, 20 HEPES), which additionally contains the cofactor coelenterazine (25 μM) and glutathione (4 mM), and the microtitre plate is then incubated for a further 3-4 hours. The test substances are then pipetted onto the microtitre plate, and 5 minutes after the transfer of the test substances into the wells of the microtitre plate the plate is transferred into the luminometer, a PAR1 agonist concentration which corresponds to the EC50 is added and the resulting light signal is immediately measured in the luminometer. To distinguish an antagonist substance action from a toxic action, the endogenous purinergic receptor is immediately subsequently activated with agonist (ATP, final concentration 10 μM) and the resulting light signal is measured.
One may read the IC50 as the concentration that inhibits the measured activity by half. For the molecule `CC(C)c1noc(C2CC(c3ccc(C(F)(F)F)cc3)CN(C(=O)N3CCC(C#N)CC3)C2)n1` (racemic) [Example 284, 1-({3-[3-(Propan-2-yl)-1,2,4-oxadiazol-5-yl]-5-[4-(trifluoromethyl)phenyl]piperidin-1-yl}-carbonyl)piperidine-4-carbonitrile], the IC50 stood at 0.00973 µM.

Regarding `Cc1ccc(C2CC(c3nc(C(C)C)no3)CN(C(=O)N3CCOCC3)C2)cc1C` (racemic) [Example 148, {3-(3,4-Dimethylphenyl)-5-[3-(propan-2-yl)-1,2,4-oxadiazol-5-yl]piperidin-1-yl}(morpholin-4-yl)methanone], the IC50 worked out at 0.014 µM.

As for `O=C(N1CCOCC1)N1CC(c2ccc(OC(F)(F)F)cc2)CC(c2nc(C3CCC3)no2)C1` (racemic) [Example 513, {3-(3-Cyclobutyl-1,2,4-oxadiazol-5-yl)-5-[4-(trifluoromethoxy)phenyl]piperidin-1-yl}(morpholin-4-yl)methanone], the IC50 was 0.00516 µM.

For `CCc1ccc(C2CC(c3nc(-c4cccc(OC)c4)no3)CN(C(=O)N3CCOCC3)C2)cc1` (racemic) [Example 28, 4-({3-(4-Ethylphenyl)-5-[3-(3-methoxyphenyl)-1,2,4-oxadiazol-5-yl]piperidin-1-yl}carbonyl)-morpholine], the IC50 amounted to 0.028 µM.

Consider `CC(C)c1noc(C2CC(c3ccc(OC(F)(F)F)cc3)CN(C(=O)N3CCC(O)CC3)C2)n1` (single isomer, unassigned) [Example 451, (4-Hydroxypiperidin-1-yl){3-[3-(propan-2-yl)-1,2,4-oxadiazol-5-yl]-5-[4-(trifluoromethoxy)phenyl]piperidin-1-yl}methanone], for which the IC50 amounted to 0.0196 µM.

As to `COCCc1noc(C2CC(c3cccc(OC(F)(F)F)c3)CN(C(=O)N3CCOCC3)C2)n1` (single isomer, unassigned) [Example 194, {3-[3-(2-Methoxyethyl)-1,2,4-oxadiazol-5-yl]-5-[3-(trifluoromethoxy)phenyl]piperidin-1-yl}-(morpholin-4-yl)methanone], the IC50 stood at 0.0661 µM.

`CC1CN(C(=O)N2CC(c3ccc(C(F)(F)F)cc3)CC(c3nc(C4CC4)no3)C2)C1` (racemic) [Example 181, {3-(3-Cyclopropyl-1,2,4-oxadiazol-5-yl)-5-[4-(trifluoromethyl)phenyl]piperidin-1-yl}(3-methylazetidin-1-yl)methanone]: the IC50 came out at 0.0288 µM.

As for `CC(C)Cc1nnc(C2CC(c3ccc(OC(F)(F)F)cc3)CN(C(=O)N3CCOCC3)C2)o1` (racemic) [Example 474, {3-[5-(2-Methylpropyl)-1,3,4-oxadiazol-2-yl]-5-[4-(trifluoromethoxy)phenyl]piperidin-1-yl}-(morpholin-4-yl)methanone], the IC50 was determined as 0.0234 µM.

Take `O=C(N1CCOCC1)N1CC(c2ccc(OC(F)(F)F)cc2)CC(c2nnc(-c3ccccc3)s2)C1` (racemic) [Example 495, Morpholin-4-yl{3-(5-phenyl-1,3,4-thiadiazol-2-yl)-5-[4-(trifluoromethoxy)phenyl]piperidin-1-yl}-methanone]: the IC50 is 0.00351 µM.

In the case of `O=C(N1CCOCC1)N1CC(c2ccc(C(F)(F)F)cc2)CC(c2noc(-c3ccccc3)n2)C1` (racemic) [Example 160, Morpholin-4-yl{3-(5-phenyl-1,2,4-oxadiazol-3-yl)-5-[4(trifluoromethyl)phenyl]piperidin-1-yl}-methanone], the IC50 amounted to 0.0054 µM.

Take `Cc1ccncc1-c1csc(C2CC(c3ccc(C(F)(F)F)cc3)CN(C(=O)N3CCOCC3)C2)n1` (racemic) [Example 113, 4-({3-[4-(4-Methylpyridin-3-yl)-1,3-thiazol-2-yl]-5-[4-(trifluoromethyl)phenyl]piperidin-1-yl}carbonyl)morpholine]: the IC50 was determined as 0.047 µM.

Regarding `COCc1nc(C2CC(c3ccc(C(F)(F)F)cc3)CN(C(=O)N3CCOCC3)C2)no1` (centres unmarked) [Example 465, {3-[5-(Methoxymethyl)-1,2,4-oxadiazol-3-yl]-5-[4-(trifluoromethyl)phenyl]piperidin-1-yl}-(morpholin-4-yl)methanone], the IC50 was 0.0244 µM.

As to `CC(C)(C)c1noc(C2CC(c3ccc(C(F)(F)F)cc3)CN(C(=O)N3CCC(C#N)CC3)C2)n1` (racemic) [Example 283, 1-({3-(3-tert-Butyl-1,2,4-oxadiazol-5-yl)-5-[4-(trifluoromethyl)phenyl]piperidin-1-yl}carbonyl)-piperidine-4-carbonitrile], the IC50 turned out to be 0.0149 µM.

In the case of `CC(C)c1nc(C2CC(c3ccc(C(F)(F)F)cc3)CN(C(=O)N3CCOCC3)C2)no1` (racemic) [Example 169, Morpholin-4-yl{3-[5-(propan-2-yl)-1,2,4-oxadiazol-3-yl]-5-[4-(trifluoromethyl)phenyl]piperidin-1-yl}methanone], the concentration for half-maximal inhibition (IC50) was determined as 0.00674 µM.

As for `Cc1noc(C2CC(c3ccc(OC(F)(F)F)cc3)CN(C(=O)N3CCC(O)CC3)C2)n1` (single isomer, unassigned) [Example 454, (4-Hydroxypiperidin-1-yl){3-(3-methyl-1,2,4-oxadiazol-5-yl)-5-[4-(trifluoromethoxy)phenyl]piperidin-1-yl}methanone], the IC50 came to 0.0475 µM.

On to `CCc1noc(C2CC(c3ccc(OC(F)(F)F)cc3)CN(C(=O)N3CCC(C#N)CC3)C2)n1` (racemic) [Example 519, 1-({3-(3-Ethyl-1,2,4-oxadiazol-5-yl)-5-[4-(trifluoromethoxy)phenyl]piperidin-1-yl}carbonyl)-piperidine-4-carbonitrile], for which the IC50 is 0.0208 µM.

As for `O=C(N1CCC(O)C1)N1CC(c2ccc(C(F)(F)F)cc2)CC(c2nc(C3CC3)no2)C1` (centres unmarked) [Example 146, {3-(3-Cyclopropyl-1,2,4-oxadiazol-5-yl)-5-[4-(trifluoromethyl)phenyl]piperidin-1-yl}(3-hydroxy-pyrrolidin-1-yl)methanone], the IC50 worked out at 0.00939 µM.

`O=C(N1CC(c2ccc(OC(F)(F)F)cc2)CC(c2nc(C3CC3)no2)C1)N1CCC(F)(F)C1` (racemic) [Example 144, {3-(3-Cyclopropyl-1,2,4-oxadiazol-5-yl)-5-[4-(trifluoromethoxy)phenyl]piperidin-1-yl}(3,3-difluoropyrrolidin-1-yl)methanone]: the IC50 was determined as 0.00851 µM.

Take `Cc1noc(C2CC(c3ccc(OC(F)(F)F)cc3)CN(C(=O)N3CCOCC3)C2)n1` (single isomer, unassigned) [Example 239, {3-(3-Methyl-1,2,4-oxadiazol-5-yl)-5-[4-(trifluoromethoxy)phenyl]piperidin-1-yl}(morpholin-4-yl)methanone]: the IC50 was found to be 0.00574 µM.

Turning to `CCc1ccc(C2CC(c3nc(CCOC)no3)CN(C(=O)N3CCC(O)CC3)C2)cc1` (racemic) [Example 183, {3-(4-Ethylphenyl)-5-[3-(2-methoxyethyl)-1,2,4-oxadiazol-5-yl]piperidin-1-yl}(4-hydroxy-piperidin-1-yl)methanone], the IC50 was found to be 0.0315 µM.

Turning to `COCCc1noc(C2CC(c3ccc(C(F)(F)F)cc3)CN(C(=O)N3CCC(O)CC3)C2)n1` (single isomer, unassigned) [Example 276, (4-Hydroxypiperidin-1-yl) {3-[3-(2-methoxyethyl)-1,2,4-oxadiazol-5-yl]-5-[4-(trifluoromethyl)-phenyl]piperidin-1-yl}methanone], the IC50 was 0.0253 µM.

Consider `O=C(N1CCOCC1)N1CC(c2cccc(C(F)(F)F)c2)CC(c2nc(-c3c(F)cccc3F)no2)C1` (centres unmarked) [Example 352], for which the IC50 came to 0.00477 µM.

As to `Cc1ccc(C2CC(c3nc(-c4cccc(F)c4)no3)CN(C(=O)N3CCC(O)CC3)C2)cc1C` (racemic) [Example 232, {3-(3,4-Dimethylphenyl)-5-[3-(3-fluorophenyl)-1,2,4-oxadiazol-5-yl]piperidin-1-yl}(4-hydroxy-piperidin-1-yl)methanone], the IC50 stood at 0.00644 µM.
